Experimental findings from US20100022531A1, “NOVEL COMPOUNDS AS P2X7 MODULATORS AND USES THEREOF” (RENOVIS, INC., priority 2005, published 2010) are described below.

This experiment deals with T1, P2X7 receptor (Homo sapiens, UniProt Q99572).
T1 construct: host or cells: THP-1 cells differentiated with LPS and IFN-γ
T1 sequence (Q99572 1-595): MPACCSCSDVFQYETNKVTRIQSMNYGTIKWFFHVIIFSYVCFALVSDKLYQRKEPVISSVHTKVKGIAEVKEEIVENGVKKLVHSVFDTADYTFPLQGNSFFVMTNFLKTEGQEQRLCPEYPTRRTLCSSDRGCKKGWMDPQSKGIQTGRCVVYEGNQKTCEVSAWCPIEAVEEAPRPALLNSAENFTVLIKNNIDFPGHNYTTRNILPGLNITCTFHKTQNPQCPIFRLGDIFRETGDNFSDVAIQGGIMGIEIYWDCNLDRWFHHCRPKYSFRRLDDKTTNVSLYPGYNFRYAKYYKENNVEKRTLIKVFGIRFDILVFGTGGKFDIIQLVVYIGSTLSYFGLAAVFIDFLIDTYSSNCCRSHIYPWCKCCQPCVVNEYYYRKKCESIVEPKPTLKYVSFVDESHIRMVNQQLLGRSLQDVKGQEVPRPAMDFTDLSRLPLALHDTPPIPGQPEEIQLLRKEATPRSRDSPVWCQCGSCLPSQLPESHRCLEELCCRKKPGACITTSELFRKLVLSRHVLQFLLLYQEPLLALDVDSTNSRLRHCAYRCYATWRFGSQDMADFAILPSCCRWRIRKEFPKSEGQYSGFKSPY
The experiment can be described thus: Alternate method for IL-1β release assay (differentiated THP-1 cells, BzATP-stimulated, ELISA). Conditions: P2X7; for inhibition at 0.3 µM: 0.3 μM compound (symbols * to ****), read-out: IL-1β % inhib @ 0.3 μM; for inhibition at 0.1 µM: 0.1 μM compound (symbols + to ++++), read-out: IL-1β % inhib @ 0.1 μM. Format: cell-based. In short, it runs like this:
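After 16 h differentiation with 100 ng/mL LPS and 100 ng/mL IFN-γ plus a further 2 h LPS priming, THP-1 cells were pretreated 30 min with compound, then stimulated with 250 uM BzATP (final) for 45 min. Supernatant IL-1β measured by ELISA; percent inhibition from background-adjusted levels versus untreated cells.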
In general terms: ELISA stands for enzyme-linked immunosorbent assay.

With `COc1cc(CN2CCc3c(ncnc3NCC34CC5CC(CC(C5)C3)C4)C2)cc(Br)c1OC` [Compound 205], the inhibition at 0.3 µM lay within 0 to 25%.
In the case of `N#Cc1cc(CN2CCc3c(ncnc3NCC34CC5CC(CC(C5)C3)C4)C2)ccc1F` [Compound 206], the inhibition at 0.3 µM is greater than 75%.
As for `c1cc(CN2CCc3c(ncnc3NCC34CC5CC(CC(C5)C3)C4)C2)c2c(c1)OCO2` [Compound 207], the inhibition at 0.1 µM is greater than 75%.
For the compound `Brc1ccc(CN2CCc3c(ncnc3NCC34CC5CC(CC(C5)C3)C4)C2)cc1` [Compound 208], the inhibition at 0.3 µM was greater than 75%.
The same measure, in the same setting: the same measure for `Clc1cccc(CN2CCc3c(ncnc3NCC34CC5CC(CC(C5)C3)C4)C2)c1` [Compound 209]: 0 to 25%.
As to `Clc1cc2c(cc1CN1CCc3c(ncnc3NCC34CC5CC(CC(C5)C3)C4)C1)OCO2` [Compound 210], the inhibition at 0.3 µM was in the range of 0 to 25%.
On the same count and under the same terms, under `CC(C)(C)CN1CCc2c(ncnc2NCC23CC4CC(CC(C4)C2)C3)C1` [Compound 211] stands greater than 75%; under `Clc1ccc(CN2CCc3c(ncnc3NCC34CC5CC(CC(C5)C3)C4)C2)cc1` [Compound 212], greater than 75%; under `N#Cc1ccc(CN2CCc3c(ncnc3NCC34CC5CC(CC(C5)C3)C4)C2)cc1` [Compound 214], 25 to 50%.
Regarding `FC(F)(F)c1ccc(CN2CCc3c(ncnc3NCC34CC5CC(CC(C5)C3)C4)C2)cc1` [Compound 215], the inhibition at 0.3 µM lay within 0 to 25%.
As for `Fc1cccc(CN2CCc3c(ncnc3NCC34CC5CC(CC(C5)C3)C4)C2)c1` [Compound 216], the inhibition at 0.3 µM is greater than 75%.
Regarding `Cc1cccc(CN2CCc3c(ncnc3NCC34CC5CC(CC(C5)C3)C4)C2)c1` [Compound 217], the inhibition at 0.3 µM is greater than 75%.
`Fc1ccc(CN2CCc3c(ncnc3NCC34CC5CC(CC(C5)C3)C4)C2)cc1` [Compound 218]: the inhibition at 0.3 µM is greater than 75%.
The same measure, in the same setting: the same measure for `COc1ccc(CN2CCc3c(ncnc3NCC34CC5CC(CC(C5)C3)C4)C2)c(OC)c1` [Compound 219]: 0 to 25%; for `Fc1ccc(CN2CCc3c(ncnc3NCC34CC5CC(CC(C5)C3)C4)C2)c(F)c1` [Compound 220]: greater than 75%.
In the case of `c1cc(CN2CCc3c(ncnc3NCC34CC5CC(CC(C5)C3)C4)C2)ccn1` [Compound 221], the inhibition at 0.3 µM was greater than 75%.
In the case of `Fc1cc(CN2CCc3c(ncnc3NCC34CC5CC(CC(C5)C3)C4)C2)ccc1Cl` [Compound 222], the inhibition at 0.3 µM was greater than 75%.
With `Fc1cc(C(F)(F)F)ccc1CN1CCc2c(ncnc2NCC23CC4CC(CC(C4)C2)C3)C1` [Compound 223], the inhibition at 0.3 µM was greater than 75%.
Regarding `Brc1ccc(CN2CCc3c(ncnc3NCC34CC5CC(CC(C5)C3)C4)C2)cn1` [Compound 224], the inhibition at 0.3 µM fell in the range of 0 to 25%.
Still for that read-out and setting: the same measure for `Brc1cccc(CN2CCc3c(ncnc3NCC34CC5CC(CC(C5)C3)C4)C2)c1` [Compound 225]: greater than 75%; for `COc1ccccc1CN1CCc2c(ncnc2NCC23CC4CC(CC(C4)C2)C3)C1` [Compound 226]: greater than 75%; for `CC(=O)Nc1ccc(CN2CCc3c(ncnc3NCC34CC5CC(CC(C5)C3)C4)C2)cc1` [Compound 227]: 0 to 25%.
Take `Brc1ccccc1CN1CCc2c(ncnc2NCC23CC4CC(CC(C4)C2)C3)C1` [Compound 228]: the inhibition at 0.3 µM was in the range of 0 to 25%.
For the compound `Fc1ccc(Br)cc1CN1CCc2c(ncnc2NCC23CC4CC(CC(C4)C2)C3)C1` [Compound 229], the inhibition at 0.3 µM lay within 0 to 25%.
Same read-out and setting: under `c1nc2c(c(NCC34CC5CC(CC(C5)C3)C4)n1)CCN(CC1CCCC1)C2` [Compound 230] stands greater than 75%; under `FC(F)(F)Oc1ccc(CN2CCc3c(ncnc3NCC34CC5CC(CC(C5)C3)C4)C2)cc1` [Compound 231], 0 to 25%; under `FC(F)Oc1ccc(CN2CCc3c(ncnc3NCC34CC5CC(CC(C5)C3)C4)C2)cc1` [Compound 232], 0 to 25%.
`Fc1ccc(COc2ccc(CN3CCc4c(ncnc4NCC45CC6CC(CC(C6)C4)C5)C3)cc2)cc1` [Compound 233]: the inhibition at 0.3 µM is 0 to 25%.
On the same count and under the same terms, under `COc1cc(F)c(CN2CCc3c(ncnc3NCC34CC5CC(CC(C5)C3)C4)C2)cc1OC` [Compound 234] stands 0 to 25%; under `COc1cc(F)c(CN2CCc3c(ncnc3NCC34CC5CC(CC(C5)C3)C4)C2)c(F)c1` [Compound 235], 0 to 25%.
Regarding `CCOc1cccc(CN2CCc3c(ncnc3NCC34CC5CC(CC(C5)C3)C4)C2)c1` [Compound 236], the inhibition at 0.3 µM lay within 50 to 75%.
`FC1(F)Oc2ccc(CN3CCc4c(ncnc4NCC45CC6CC(CC(C6)C4)C5)C3)cc2O1` [Compound 238]: the inhibition at 0.3 µM was in the range of 0 to 25%.
Same read-out and setting: under `COc1ccc(F)c(CN2CCc3c(ncnc3NCC34CC5CC(CC(C5)C3)C4)C2)c1` [Compound 239] stands 0 to 25%.
On the same count and under the same terms, the same measure for `COc1cc(CN2CCc3c(ncnc3NCC34CC5CC(CC(C5)C3)C4)C2)ccc1F` [Compound 240]: greater than 75%.
Still for that read-out and setting: the same measure for `CCOc1ccc(CN2CCc3c(ncnc3NCC34CC5CC(CC(C5)C3)C4)C2)cc1` [Compound 241]: greater than 75%; for `COc1ccc(OC)c(CN2CCc3c(ncnc3NCC34CC5CC(CC(C5)C3)C4)C2)c1` [Compound 242]: greater than 75%; for `FC(F)(F)Oc1cccc(CN2CCc3c(ncnc3NCC34CC5CC(CC(C5)C3)C4)C2)c1` [Compound 243]: greater than 75%.
For `COc1cc(CN2CCc3c(ncnc3NCC34CC5CC(CC(C5)C3)C4)C2)cc(OC)c1` [Compound 244], the inhibition at 0.3 µM was greater than 75%.
On to `Clc1ccc(CN2CCc3c(ncnc3NCC34CC5CC(CC(C5)C3)C4)C2)cn1` [Compound 245], for which the inhibition at 0.3 µM was greater than 75%.
Same read-out and setting: the same measure for `Fc1cc(Cl)ccc1CN1CCc2c(ncnc2NCC23CC4CC(CC(C4)C2)C3)C1` [Compound 246]: greater than 75%; for `CC12CC3(C)CC(C)(C1)CC(CNc1ncnc4c1CCN(Cc1ccccc1)C4)(C2)C3` [Compound 247]: 25 to 50%.
With `O=C(COc1cccc(Cl)c1)N1CCc2c(ncnc2NCC23CC4CC(CC(C4)C2)C3)C1` [Compound 248, 1-{4-[(Adamantan-1-ylmethyl)-amino]-5,8-dihydro-6H-pyrido[3,4-d]pyrimidin-7-yl}-2-(3-chloro-phenoxy)-ethanone], the inhibition at 0.1 µM was greater than 75%.
On the same count and under the same terms, the same measure for `O=C(C1CCOC1)N1CCc2c(ncnc2NCC23CC4CC(CC(C4)C2)C3)C1` (stereo not drawn) [Compound 249, {4-[(Adamantan-1-ylmethyl)-amino]-5,8-dihydro-6H-pyrido[3,4-d]pyrimidin-7-yl}-(tetrahydro-furan-3-yl)-methanone]: 0 to 25%.
On the same count and under the same terms, under `O=C(O[C@@H]1CCOC1)N1CCc2c(ncnc2NCC23CC4CC(CC(C4)C2)C3)C1` [Compound 250, 4-[(Adamantan-1-ylmethyl)-amino]-5,8-dihydro-6H-pyrido[3,4-d]pyrimidine-7-carboxylic acid (R)-(tetrahydro-furan-3-yl)ester] stands 0 to 25%; under `O=C(COc1ccc(OC(F)(F)F)cc1)N1CCc2c(ncnc2NCC23CC4CC(CC(C4)C2)C3)C1` [Compound 251, 1-{4-[(Adamantan-1-ylmethyl)-amino]-5,8-dihydro-6H-pyrido[3,4-d]pyrimidin-7-yl}-2-(4-trifluoromethoxy-phenoxy)-ethanone], 0 to 25%.
